Experimental data as given in ChEMBL document CHEMBL3232928, “Fragment-to-hit-to-lead discovery of a novel pyridylurea scaffold of ATP competitive dual targeting type II topoisomerase inhibiting antibacterial agents” (J Med Chem, 2013).
Values after ≈ are worked out from the molar mass of the structure shown.

What was measured:
Escherichia coli [1] = assay: Antibacterial activity against wild type Escherichia coli W3110 assessed as growth inhibition after 18 to 24 hrs by CLSI broth microdilution method; assay type: functional
DNA gyrase subunit B = DNA gyrase subunit B (Staphylococcus aureus, UniProt P0A0K8); assay: Inhibition of ATPase activity in Staphylococcus aureus GyrB tetramer in presence of Escherichia coli GyrA by ammonium molybdate/malachite green-based absorbance assay
Moraxella catarrhalis = assay: Antibacterial activity against wild type Moraxella catarrhalis ATCC 43617 assessed as growth inhibition after 18 to 24 hrs by CLSI broth microdilution method; assay type: functional
[2] = Inhibition of ATPase activity in Escherichia coli ParE by ammonium molybdate/malachite green-based absorbance assay
[3] = Antibacterial activity against Streptococcus pneumoniae D39 NCTC 7466 assessed as growth inhibition after 18 to 24 hrs by CLSI broth microdilution method; assay type: functional
[4] = Inhibition of ATPase activity in Escherichia coli GyrA/GyrB by ammonium molybdate/malachite green-based absorbance assay
Staphylococcus aureus [5] = assay: Antibacterial activity against methicillin-sensitive wild type Staphylococcus aureus assessed as growth inhibition after 18 to 24 hrs by CLSI broth microdilution method; assay type: functional
[6] = Antibacterial activity against wild type Haemophilus influenzae Rd KW20 ATCC 51907 assessed as growth inhibition after 18 to 24 hrs by CLSI broth microdilution method; assay type: functional
Escherichia coli [7] = assay: Antibacterial activity against tolC efflux pump deficient Escherichia coli W3110 assessed as growth inhibition after 18 to 24 hrs by CLSI broth microdilution method; assay type: functional
[8] = Octanol-phosphate buffer partition coefficient, log D of the compound at pH 7.4 after 1 hr by shake flask method; assay type: physicochemical
[9] = Inhibition of ATPase activity in Escherichia coli ParC/ParE by ammonium molybdate/malachite green-based absorbance assay
Staphylococcus aureus [10] = assay: Antibacterial activity against methicillin-resistant and […] Staphylococcus aureus assessed as growth inhibition after 18 to 24 hrs by CLSI broth microdilution method; assay type: functional
[11] = Solubility of the compound; assay type: physicochemical

DNA gyrase subunit B, sequence (P0A0K8 whole entry): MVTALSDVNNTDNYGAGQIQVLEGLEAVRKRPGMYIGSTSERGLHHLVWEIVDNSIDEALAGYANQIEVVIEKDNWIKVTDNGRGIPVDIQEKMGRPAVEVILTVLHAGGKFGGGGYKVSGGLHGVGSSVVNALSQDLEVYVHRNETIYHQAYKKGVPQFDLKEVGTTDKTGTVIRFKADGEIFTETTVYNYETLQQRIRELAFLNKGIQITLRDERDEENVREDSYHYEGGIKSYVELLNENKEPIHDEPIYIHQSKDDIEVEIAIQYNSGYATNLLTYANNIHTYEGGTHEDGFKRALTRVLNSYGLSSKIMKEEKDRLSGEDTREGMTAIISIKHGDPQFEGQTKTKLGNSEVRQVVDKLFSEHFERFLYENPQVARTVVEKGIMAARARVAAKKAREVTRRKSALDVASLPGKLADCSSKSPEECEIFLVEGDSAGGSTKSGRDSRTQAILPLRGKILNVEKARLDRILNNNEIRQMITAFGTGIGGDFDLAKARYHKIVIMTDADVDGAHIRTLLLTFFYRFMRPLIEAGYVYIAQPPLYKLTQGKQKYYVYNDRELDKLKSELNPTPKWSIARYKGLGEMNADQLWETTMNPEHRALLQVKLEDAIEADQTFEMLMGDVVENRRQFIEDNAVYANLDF

Row | Compound | MIC (Escherichia coli [1]) [µg/mL] | IC50 (DNA gyrase subunit B) [µM] | MIC (Moraxella catarrhalis) [µg/mL] | IC50 [2] [µM] | MIC [3] [µg/mL] | IC50 [4] [µM] | MIC (Staphylococcus aureus [5]) [µg/mL] | MIC [6] [µg/mL] | MIC (Escherichia coli [7]) [µg/mL] | logD at 1 h [8] | IC50 [9] [µM] | MIC (Staphylococcus aureus [10]) [µg/mL] | solubility [11] [µM]
1 | CCNC(=O)Nc1cc(-c2ccncc2)c(-c2cncc(C(=O)O)c2)cn1 | > 9 | 0.32 | > 9 | 0.31 | > 9 | 0.24 | > 9 | > 9 | > 9 | -0.82 | 11 | – | –
2 | CCNC(=O)Nc1ccccc1 | – | > 1000 | – | – | – | – | – | – | – | – | – | – | –
3 | CCNC(=O)Nc1ccc(-c2nc3cccc(C(=O)O)c3s2)cn1 | > 64 | 0.1 | 8 (≈ 23.4 µM) | – | 2 (≈ 5.84 µM) | – | > 64 | 16 (≈ 46.7 µM) | 8 (≈ 23.4 µM) | – | 2.1 | – | –
4 | CCNC(=O)Nc1ccc(-c2ncc(C(=O)O)s2)cn1 | > 64 | 0.27 | > 64 | 0.11 | 64 (≈ 219 µM) | 0.24 | > 64 | > 64 | – | – | 8.8 | – | –
5 | CCNC(=O)Nc1ccc(-c2cccc(C(=O)O)c2)cn1 | > 64 | 3.4 | 42 (≈ 147 µM) | 2 | 21 (≈ 73.6 µM) | 4.7 | > 64 | 59 (≈ 207 µM) | > 64 | – | 69 | – | –
6 | CCNC(=O)Nc1ccccn1 | – | 32 | – | – | – | – | – | – | – | – | – | – | –
7 | CCNC(=O)Nc1cc(Br)c(-c2cncc(C(=O)O)c2)cn1 | > 9 | 0.3 | – | 0.053 | 4.6 (≈ 12.6 µM) | 0.068 | > 9 | > 9 | > 9 | -1 | 4.8 | – | –
8 | CCNC(=O)Nc1ccc(Oc2cccc(C(=O)O)c2)cn1 | > 64 | 9.9 | > 64 | 16 | > 64 | 4.4 | > 64 | > 64 | > 64 | – | > 200 | – | –
9 | CCNC(=O)Nc1ccc(-c2ccc(C(=O)O)cc2)cn1 | > 64 | 0.88 | 4 (≈ 14 µM) | 0.054 | – | 1.6 | > 64 | 16 (≈ 56.1 µM) | 16 (≈ 56.1 µM) | – | 28 | – | –
10 | CCNC(=O)Nc1ccc(-c2cncc(C(=O)O)c2)cn1 | > 64 | – | > 64 | 0.4 | > 64 | 1.4 | > 64 | > 64 | > 64 | – | 24 | – | –
11 | CCNC(=O)Nc1cc(-c2nc(C(F)(F)F)cs2)c(-c2nc3cccc(C(=O)O)c3s2)cn1 | > 64 | < 0.01 | 1.6 (≈ 3.24 µM) | < 0.01 | 0.05 (≈ 0.101 µM) | < 0.01 | 3.1 (≈ 6.28 µM) | 12 (≈ 24.3 µM) | 0.8 (≈ 1.62 µM) | 0.73 | 0.36 | 6.1 (≈ 12.4 µM) | –
12 | CCNC(=O)Nc1cc(-c2nc(C(C)(C)C)cs2)c(-c2cncc(C(=O)O)c2)cn1 | > 64 | 0.03 | 43 (≈ 101 µM) | 0.072 | 0.66 (≈ 1.55 µM) | 0.012 | > 64 | 43 (≈ 101 µM) | 11 (≈ 25.9 µM) | 0.12 | 2.3 | – | –
13 | CCN(CC)C(=O)Nc1ccccn1 | – | 38 | – | – | – | – | – | – | – | – | – | – | –
14 | CCNC(=O)Nc1cc(-c2ccccc2)c(-c2cncc(C(=O)O)c2)cn1 | > 64 | 0.06 | > 64 | 0.17 | 4.5 (≈ 12.4 µM) | 0.096 | > 64 | > 64 | 36 (≈ 99.3 µM) | -0.31 | 2 | – | –
15 | CCNC(=O)Nc1ccc(-c2nc3cccc(C(N)=O)c3s2)cn1 | > 64 | 0.039 | > 64 | 0.071 | 1 (≈ 2.93 µM) | 0.094 | > 64 | > 64 | > 64 | – | 12 | – | < 1
16 | CCOC(=O)Nc1ccccn1 | – | > 1000 | – | – | – | – | – | – | – | – | – | – | –
17 | CCNC(=O)Nc1cc(-c2cccnc2)c(-c2cncc(C(=O)O)c2)cn1 | > 64 | 0.27 | > 64 | 0.31 | > 64 | 0.3 | > 64 | > 64 | > 64 | -1.5 | 10 | – | –
18 | CCNC(=O)Nc1ccc(-c2ncc(C(N)=O)s2)cn1 | > 64 | 0.55 | 8 (≈ 27.5 µM) | 0.38 | 4 (≈ 13.7 µM) | 0.56 | 64 (≈ 220 µM) | 32 (≈ 110 µM) | 16 (≈ 54.9 µM) | – | 27 | > 64 | –
19 | CCNC(=O)Nc1ccc(-c2cccnc2)cn1 | > 48 | 2.7 | > 48 | 1.4 | – | 2 | > 48 | > 48 | > 48 | – | 80 | > 64 | –
20 | O=C(NCC(F)(F)F)Nc1ccccn1 | – | > 1000 | – | – | – | – | – | – | – | – | – | – | –
21 | CCNC(=O)Nc1cc(-c2noc(C)n2)c(-c2cncc(C(=O)O)c2)cn1 | > 64 | – | – | 0.15 | > 64 | – | > 64 | > 64 | > 64 | -2.1 | – | – | –
22 | CCNC(=O)Nc1ncccn1 | – | 80 | – | – | – | – | – | – | – | – | – | – | –
23 | CNC(=O)Nc1ccccn1 | – | 100 | – | – | – | – | – | – | – | – | – | – | –
24 | CCNC(=O)Nc1cc(Cl)c(-c2cncc(C(=O)O)c2)cn1 | > 64 | 0.13 | > 64 | 0.022 | 4 (≈ 12.5 µM) | 0.058 | > 64 | > 64 | > 64 | -1.1 | 4.3 | – | –
25 | O=C(Nc1ccccn1)NC1CC1 | – | 1000 | – | – | – | – | – | – | – | – | – | – | –
26 | CCNC(=O)Nc1cc(-c2nc(C(F)(F)F)cs2)c(-c2ncc(C(=O)O)s2)cn1 | > 64 | < 0.01 | 44 (≈ 99.2 µM) | < 0.01 | 2.8 (≈ 6.31 µM) | < 0.01 | > 64 | > 64 | 22 (≈ 49.6 µM) | – | 0.94 | 44 (≈ 99.2 µM) | –
27 | CCNC(=O)Nc1nc2ccccc2[nH]1 | – | 64 | – | – | – | – | – | – | – | – | – | – | –
28 | C#CCNC(=O)Nc1ccccn1 | – | 350 | – | – | – | – | – | – | – | – | – | – | –
29 | CCCNC(=O)Nc1ccccn1 | – | > 1000 | – | – | – | – | – | – | – | – | – | – | –
30 | CCNC(=O)Nc1ccc(-c2nc(C(=O)O)cs2)cn1 | > 64 | 3.6 | > 64 | – | > 64 | – | > 64 | > 64 | – | – | – | – | –
